Experimental data: paper PMC5295395, “Inhibition of PlexA1-mediated brain tumor growth and tumor-associated angiogenesis using a transmembrane domain targeting peptide” (Oncotarget, 2016)
Entries after “also recorded” stand apart in the source; their conditions may differ.

How the values were obtained:
PlexA1 TMD = experiment: bacterial two-hybrid (BACTH) assay of TMD interactions with PlexA1 TMD; format: binding; settings: Zip sequence positive control, Empty negative control
Excerpt: To further explore the TMD interactions of PlexA1 we used a bacterial two-hybrid system for a more systematic analysis of TMD interactions. TMD sequences of PlexA1 and various potential interacting partners including NRP1 and all other members of the Plexin-A family were co-expressed in the bacteria to define the hierarchy of the interactions.
(§1) “Zip sequence” is the positive control of dimerization and “Empty” is the negative control of this bacterial system. (C, D) SPR assay (Biacore) to quantify MTP-PlexA1 interactions with PLexA1, NRP1 and VEGFR2 TMDs. (E) Proximity ligation assay showing that MTP-PlexA1 (10^−7 M) decreases the number of PLexA1-NRP1 interactions (green dots) in U373MG cells (scale bar = 20 μm).

HUVEC cells = experiment: pseudo-tube formation assay, HUVEC on matrigel; format: cell-based, human; settings: specificity control
Excerpt: We observed PlexA1 positive blood vessels in the tissue array of GBM samples (Figure 5A). […] To address this possibility we first used a transgenic zebra-fish model tg(kdrl:eGFP) highlighting the endothelial cells. This allowed us to assess the angiogenic activities in vivo by analyzing formation of intersegmental vessels (ISVs) after morpholino-based knockdown of the target.
Figure 5 MTP-PlexA1 inhibits developmental and tumor-specific PlexA1 pro-angiogenic role (A) Microphotographs illustrating the expression of PlexA1 in vascular-like structures in human glioma tissues. (Scale bar: 40 μm). (B) Morpholino-based PlexA1 knockdown in Zebrafish tg(kdrl:eGFP) line. Representative images of control, Plexin-A1 mismatch and Pexin-A1 knockdown embryos (plxna1MO) are shown 28 hours post fertilization (28hpf). […] (E) Live-monitoring of VEGF-induced HUVEC cell migration assay using the XCelligence system (transwell assay). (F) Microphotographs illustrating the expression of PlexA1 in blood vessels of the chick chorioallontoic membrane (upper left picture). Microphotographs (middle and lower left pictures) and camera lucida drawing (middle and lower right pictures) showing representative fields of observation after 24 h incubation with VEGF (100 ng/ml, +vehicle) or VEGF + MTP-PlexA1 (10^−7 M). The number of VEGF-induced new blood vessels is shown in the graph. […]

NRP1/PlexA1 complexes = experiment: in situ proximity ligation assay (Duo-link), NRP1/PlexA1 complexes in U373MG cells; format: cell-based, human; settings: specificity control, MTP-Neu at 10–6 M
Experimental: as §1
Additional specificity controls were performed using a mutated version of MTP-PlexA1 (in which 3 glycines of the GxxxGxxxG motif were replaced by 3 valines or MTP-Neu, an anti-breast cancer peptide known to not interact with PlexA1) as described in Supplementary Figure S2. […] Similar results were obtained when cells were exposed to VEGF (39.4% NRP1 and 35.4% PlexA4, Figure 4B).
Supplementary Figure S2: Specificity controls were performed using a mutated version of MTP-PlexA1 […]
LVIVAVLIAYKRK). Such mutations have been previously shown to be sufficient to lose activity of NRP1 antagonist membrane domain targeting peptide (Roth et al., 2008 Mol Biol Cell). We also used MTP-Neu, a transmembrane domain targeting peptide known to […]
M, a concentration previously shown to produce maximal antagonist activity of the peptide. Additionally, we also repeated the in vitro angiogenic assay on matrigel using HUVEC cells. […]
to MTP-PlexA1. These experiments confirmed the specificity of MTP-PlexA1.
(§2) (1 picture or pasted object on this page, not shown here)

U373MG cells = experiment: 3D migration assay, U373MG spheroids in plasma clot; format: cell-based, human; settings: U373MG, 100 ng/ml, 24 h plasma clot
Experimental: Supplementary Figure S6: The anti-tumor effect of MTP-PlxA1 was verified in U373MG human GBM line. We found […]
Because PlexA1 is involved in cell migration we also performed a 3D migration assay. U373MG cells were grown as cell aggregates (micro tumor-like spheroids) for 24 h in plasma clot with or without VEGF. […]
migration that formed cell chains invading the 3D substrate as previously described (12). Strikingly, VEGF-induced cell migration was abolished when MTP-PlexA1 at 10–7 M was added to the cultures. […]
of PlexA1, this part of the study exemplified the therapeutic potential of MTP-PlexA1 because this peptide was able to block two major mechanisms of tumor progression.
(Stable Disease) and 62.5% PR (Partial Response).
as §2

NRP1 = settings: cited from earlier work
Excerpt: Glioblastoma (GBM) is a devastating disease with poor prognosis. Highly infiltrative and vascularized, these tumors are composed of multi-clonal cell types with various migratory and proliferative properties, and are genetically very heterogeneous. This obvious cellular heterogeneity largely accounts for the observed resistance to all available therapeutic strategies including, surgery, radiotherapy and chemotherapy. Significant recent progress in targeted therapy comprises blocking various receptor tyrosine kinases (RTK) or inhibiting angiogenesis. However, the clinica ...

p-Akt/Akt = experiment: western blot of Akt phosphorylation in U373MG cells; format: cell-based, human; settings: p-Akt/Akt ratio, western blot, Sema3A 100 ng/ml
Experimental: (C) Rac-1 activation assay in resting condition and after Sema3A-induced Rac-1 activation in U373 MG cells. (D) Western blot analysis of phosphorylated Akt, total Akt and tubulin in U373MG cells treated with the vehicle (LDS 72 μM), Sema3A (100 ng/ml) or Sema3A + MTP-PlexA1 (10^−7 M). The lower panel is showing the quantification of the p-Akt/Akt ratio in the different conditions. (E) MTP-PlexA1 decreases VEGFR-2 phosphorylation induced by VEGF (100 ng/ml) in HUVEC cells. […]
in 20 mM sodium acetate (pH 4.5) at a flow rate of 5 μl/ min 10–7 M of MTP-PlexA1 or Vehicle (LDS, 72 µM) during until desired surface densities, measured in response 1 h. Stimulation was done with 100ng/ml Semaphorin 3A units, were reached. […] First antibodies (Rabbit anti-phospho-the elution buffer containing detergent removed non- akt, Rabbit anti-akt, Cell Signaling #4060 and #9272 biotinylated peptides rendering the chip ready for analysis respectively) and mouse anti-tubulin α (Cell Signaling with monomeric biot-MTP-PlexA1. Blank surfaces were #2144) were incubated overnight at 4°C (+ anti-NRP1, used for background corrections. Injections of 30 µl anti-PlexA4 Abcam). […] Images of the immuno-blots cells per well in a 6-well plate and serum starved overnight. were acquired and analyzed thanks to the GENE GNOME Before protein extraction, the cells were treated either with apparatus (Syngene Bio Imaging, UK).

## NFTGLIAGVVSISTALLLLLGFFLWLKKR [cMET, TMD of c-Met in BACTH assay]
PlexA1 TMD
  interaction with PlexA1 TMD: no significant interaction

## TLPAIVGIGGGGGLLLLVIVAVLIAYKRK [PlexA1, TMD of Plexin A1 in BACTH assay]
PlexA1 TMD
  interaction with PlexA1 TMD: homo-dimerization capacity

## TLPAIVVIGGVGVLLLLVIVAVLIAYKRK [MTP-PlexA1mut]
HUVEC cells
  effect on number of tube-like structures (HUVEC on matrigel): not able to decrease tube like structure; also recorded: not able to reduce the number of tube-like structures
NRP1/PlexA1 complexes
  disruption of NRP1/PlexA1 dimers: not by mutated MTP-PlexA1mut peptide

## IIILVGTAVIAMFFWLLLVIILRTVKRK [VEGFR-2, TMD of VEGFR-2 in BACTH assay]
PlexA1 TMD
  interaction with PlexA1 TMD: no significant interaction

## IIPIVAGVVAGIVLIGLALLLIWKLLKR [Integrin Beta-1, TMD of Integrin β-1 in BACTH assay]
PlexA1 TMD
  interaction with PlexA1 TMD: no significant interaction

## SMEIVILVGTGVIAVFFWVLLLLIFCNRRK [VEGFR-3, TMD of VEGFR-3 in BACTH assay]
PlexA1 TMD
  interaction with PlexA1 TMD: no significant interaction

## IEITLIIFGVMAGVIGTILLISYGIRRK [GPA, TMD of GpA in BACTH assay]
PlexA1 TMD
  interaction with PlexA1 TMD: no significant interaction

## ILITIIAMSALGVLLGAVCGVVLYRKR [NRP1, TMD of Neuropilin-1 in BACTH assay]
PlexA1 TMD
  interaction with PlexA1 TMD: significant interaction

## NLELITLCTCVAATLFWLLLTLFIRKK [VEGFR-1, TMD of VEGFR-1 in BACTH assay]
PlexA1 TMD
  interaction with PlexA1 TMD: no significant interaction

## VEGF [reference compound]
U373MG cells
  tumor cell migration induced by VEGF: induced tumor cell

## TLPAIVSIAAGGSLLLIIVIIVLIAYKRK [Plexin-A2, TMD of Plexin A2 in BACTH assay]
PlexA1 TMD
  interaction with PlexA1 TMD: weaker interactions

## AAQVGLGVGTSLLALGVIIIVLMYRRK [Plexin-B1, TMD of Plexin B1 in BACTH assay]
PlexA1 TMD
  interaction with PlexA1 TMD: no significant interaction

## TLPAMMGLAAGGGLLLLAITAVLVAYKRK [Plexin-A3, TMD of Plexin A3 in BACTH assay]
PlexA1 TMD
  interaction with PlexA1 TMD: weaker interactions

## ISIISAVVGILLVVVLGVVFGILIKRR [HER2, TMD of HER2 in BACTH assay]
PlexA1 TMD
  interaction with PlexA1 TMD: no significant interaction

## ILITIIAMSALGVLLGAVCGVVLYRKR [MTP-NRP1, synthetic peptide mimicking the TMD of NRP1]
NRP1
  NRP1 dimerization antagonism: potent inhibitor by antagonizing dimerization
  brain tumor growth: reducing brain tumor growth
NRP1; in vitro and in vivo
  tumor cell migration and angiogenesis: impaired tumor cell migration and angiogenesis

## SLPAIVSIAVAGGLLIIFIVAVLIAYKRK [Plexin-A4, TMD of Plexin A4 in BACTH assay]
PlexA1 TMD
  interaction with PlexA1 TMD: positive interactions

B1: Sema3A: PlexA1 ligand (protein, UniProt Q14563 21-771, looked up)
Semaphorin-3A: NYQNGKNNVPRLKLSYKEMLESNNVITFNGLANSSSYHTFLLDEERSRLYVGAKDHIFSFDLVNIKDFQKIVWPVSYTRRDECKWAGKDILKECANFIKVLKAYNQTHLYACGTGAFHPICTYIEIGHHPEDNIFKLENSHFENGRGKSPYDPKLLTASLLIDGELYSGTAADFMGRDFAIFRTLGHHHPIRTEQHDSRWLNDPKFISAHLISESDNPEDDKVYFFFRENAIDGEHSGKATHARIGQICKNDFGGHRSLVNKWTTFLKARLICSVPGPNGIDTHFDELQDVFLMNFKDPKNPVVYGVFTTSSNIFKGSAVCMYSMSDVRRVFLGPYAHRDGPNYQWVPYQGRVPYPRPGTCPSKTFGGFDSTKDLPDDVITFARSHPAMYNPVFPMNNRPIVIKTDVNYQFTQIVVDRVDAEDGQYDVMFIGTDVGTVLKVVSIPKETWYDLEEVLLEEMTVFREPTAISAMELSTKQQQLYIGSTAGVAQLPLHRCDIYGKACAECCLARDPYCAWDGSACSRYFPTAKRRTRRQDIRNGDPLTHCSDLHHDNHHGHSPEERIIYGVENSSTFLECSPKSQRALVYWQFQRRNEERKEEIRVDDHIIRTDQGLLLRSLQQKDSGNYLCHAVEHGFIQTLLKVTLEVIDTEHLEELLHKDDDGDGSKTKEMSNSMTPSQKVWYRDFMQLINHPNLNTMDEFCEQVWKRDRKQRRQRPGHTPGNSNKWKHLQENKKGRNRRTHEFERAPRSV
p-Akt/Akt
  change of Akt phosphorylation: −33%
